In EP0623675A1, “Altered affinity polypeptides of metal chelate binding antibodies” (HYBRITECH INCORPORATED, priority 1992, dated 1994):

What was measured:
[1] = tested on: CHA255 Fab' variant clone 3.1.1 (heavy chain CDR H1/H3 mutagenesis, Fig. 3B); test: Scatchard analysis of phage expressed altered CHA255 Fab' with InEOTUBE; format: binding, murine; details: compared with native CHA255 Fab' (synthesized and phage expressed); crude periplasm Fab', about 10 nM; cold InEOTUBE 2.43 nM to 0.082 nM
Procedure: (§1) Free Fab' was expressed and isolated from the periplasmic space of the non-suppressor strain MK30-3 as previously described (International Patent Publication No. WO 92/06204). The concentration of antibody in periplasm preparations was estimated by comparing the ELISA signal generated by aliquots of periplasm of mutant clones to a standard curve using purified CHA255 Fab'. Data points for the Scatchard plots were prepared by incubating antibody (100 µl, approximately 10 nM) diluted in 1X PBS, 1% BSA as crude periplasm fraction with dilutions of cold InEOTUBE (2.43 nM to 0.082 nM) in 1X PBS, 1% BSA hapten spiked with ¹¹¹InEOTUBE as a tracer for […]. This assay is described in greater detail in Example 3, below. The sample was centrifuged at 6,000 rpm for 10 minutes in an Amicon Centrifree™ micro-concentrator (Amicon, Grace Co., Danvers, MA), 10,000 MW cutoff, to separate free hapten from hapten bound to Fab'. Total and free counts were determined and the slope of a plot of the ratio of bound hapten to free hapten versus the concentration of bound hapten was calculated for affinity constant (Ka).
(§2) The following were added to a 96 well microtiter plate, in triplicate: • a. 25µl EOTUBE-¹¹¹In-ground state in at 4.40pg/µl; • b. 25µl EOTUBE-ground state in at serial dilutions of the 0.40ng/µl and 0.36ng/µl made above. Eleven dilutions each plus a zero giving 24 points with a range of 10ng/well down to 4.40pg/well plus a zero. Dilute with RPMI containing 10% horse serum; • c. 25µl RPMI containing 10% horse serum; • d. 25µl antibody of interest. (concentration determined by sensitivity assay); and • e. 20µl sheep anti-mouse IgG coupled to sepharose beads (same as used in sensitivity curve assay).
(§3) The plate was incubated overnight on a rotator at room temperature. The contents of wells were aspirated onto glass-fiber filter paper, cut out and counted. Molar bound vs. bound/free were graphed. The linear regression of the part of the curve that is a straight line was determined. Ka was the negative of the slope.

[2] = tested on: CHA255 Fab' variant clone 4.2.1 (heavy chain CDR H1/H3 mutagenesis, Fig. 3B); test: as above; format: binding, murine; details: compared with native CHA255 Fab' (synthesized and phage expressed); crude periplasm Fab', about 10 nM; cold InEOTUBE 2.43 nM to 0.082 nM
Procedure: as §1, §2, §3

[3] = tested on: CHA255 Fab' variant clone 3.2.1 (heavy chain CDR H1/H3 mutagenesis, Fig. 3B); test: as above; format: binding, murine; details: compared with native phage expressed CHA255 Fab'; crude periplasm Fab', about 10 nM; cold InEOTUBE 2.43 nM to 0.082 nM
Procedure: as §1, §2, §3

[4] = tested on: CHA255 Fab' variant clone 1.1.1 (heavy chain CDR H1/H3 mutagenesis, Fig. 3B); test: as above; format: binding, murine; details: compared with native CHA255 Fab' (synthesized and phage expressed); crude periplasm Fab', about 10 nM; cold InEOTUBE 2.43 nM to 0.082 nM
Procedure: as §1, §2, §3

[5] = tested on: CHA255 Fab' variant clone 3.7.1 (heavy chain CDR H1/H3 mutagenesis, Fig. 3B); test: as above; format: binding, murine; details: compared with native CHA255 Fab' (synthesized and phage expressed); crude periplasm Fab', about 10 nM; cold InEOTUBE 2.43 nM to 0.082 nM
Procedure: as §1, §2, §3

[6] = tested on: monoclonal antibody CHA255; test: Antibody CHA255 binding assay (Centrifree ultrafiltration of labeled chelate); set-up: species or system murine; details: radiolabeled chelate 5 nM, antibody 133 nM, PBS pH 7.4, 15 minutes at room temperature
Procedure: As indicated, the monoclonal antibody CHA255 is specific for the In(III)-benzyl EDTA complex. The affinity and characterization have been described previously by Reardon et al. in Nature 316:265 (1985). Binding assays were performed to verify the identity of the haptens designated as DB-I to DB-X and DDB-I to DDB-III. […] For the ⁹⁰Yttrium (III) hapten chelate, in particular, CHA255 binding required the presence of the Indiumbenzyl-EDTA moiety as provided in the compounds of the invention. The labeled DB and DDB hapten chelates were combined with antibody CHA255 in PBS (10 mM sodium phosphate, 150 mM sodium chloride, pH 7.4) containing 44 µg/mL of human serum albumin and 0.05% Triton-X-100 detergent. Concentrations of the radiolabeled hapten chelating agent and antibody were 5 nM and 133 nM, respectively. The mixture was vortexed and allowed to stand at room temperature for 15 minutes, after which it was transferred to an Amicon Centrifree™ device, with a NMW limit of 30,000, and centrifuged to separate antibody-bound chelate from free hapten chelate. The species bound to the antibody was retained by the membrane and the free chelate flowed through the membrane into the filtrate. The extent of antibody-hapten chelate binding was then determined.

Substance	binding affinity (affinity constant Ka for InEOTUBE) [1]	binding affinity (affinity constant Ka for InEOTUBE) [2]	binding affinity (affinity constant Ka for InEOTUBE) [3]	binding affinity (affinity constant Ka for InEOTUBE) [4]	binding affinity (affinity constant Ka for InEOTUBE) [5]	antibody-hapten chelate binding [6]
4-[N'[2-hydroxyethyl]-thioureido]benzyl EDTA [InEOTUBE]	approximately equivalent	approximately equivalent	approximately one order of magnitude less than the native phage expressed Fab'	approximately equivalent	approximately equivalent	–
diethylenetriaminepentaacetic acid [⁹⁰Yttrium (III) DTPA]	–	–	–	–	–	neither ⁹⁰Yttrium (III) or ¹¹¹Indium (III) DTPA, alone, bound
